Source: publication PMC3183052, “Immunoprotectivity of HLA-A2 CTL Peptides Derived from Respiratory Syncytial Virus Fusion Protein in HLA-A2 Transgenic Mouse” (PLoS ONE, 2011)

Key:
HLA-A*0201 = target: T1, HLA-A*0201 (Homo sapiens, UniProt P04439, D140Y/D185E/D98H/E176V/E277Q/G131W/G231S/I119V/I121R/I166T/I218V/L300P/L318F/N151K/N90K/P208A/P217A/Q86G/Q94H/R138H/R169H/T345S); experiment: T2 cell-stabilization assay (T2-binding); conditions: T2 cells 5×10^5, peptide 50 µg/mL + β2-microglobulin 5 µg/mL, 28°C 16–18 h, then brefeldin A 10 µg/mL 37°C 3 h; FITC anti-HLA-A2, flow cytometry; MFI relative to negative control HCV C55-74 (set as 1)
T1 construct: Human T2 cells (purchased from the American Type Culture Collection, ATCC) (ATCC No. CRL-1992) expressing the HLA-A*0201 gene; endogenous in cells; host or cells: human T2 cells (ATCC CRL-1992)
How it was run: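 T2 cells were pulsed with 9-mer peptides (50 µg/mL) plus β2-microglobulin (5 µg/mL) at 28°C for 16–18 hours, then brefeldin A (10 µg/mL) at 37°C for 3 hours. Surface HLA-A2 was stained with FITC anti-HLA-A2 and read by flow cytometry. Binding is MFI relative to T2 cells loaded with HCV peptide C55-74 (MFI = 1).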

[1] = test system: splenocytes from HLA-A*0201 transgenic C57BL/6 mice; experiment: IL-2 ELISPOT of splenocytes restimulated with peptide; format: cell-based, mouse
How it was run: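 HLA-A*0201 transgenic C57BL/6 mice primed and boosted intranasally 20 days apart with 1×10^7 pfu rAd-F0 or 1×10^4 live RSV B1; splenocytes taken 10 days post-boost. Splenocytes restimulated 48 h at 37°C with 2 µg individual RSV F 9-mer peptides; spots counted, expressed per 5×10^5 splenocytes.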

CD4+CD25+ T cells = experiment: Infiltration of CD4+CD25+ T cells in the lungs after RSV challenge; format: in vivo, mouse; conditions: mice pre-immunized with peptide and challenged with live RSV; unshown results

In the case of “YMLTNSELL [peptide 14, HLA-A*0201-restricted 9-mer synthetic peptide from F protein of RSV-B1 strain]”, the “T2-binding Ratio of MFI” value (HLA-A*0201) is reported as 1.71, the “IL-2 ELISPOT, RSV” value ([1]; splenocytes of HLA-Tg B6 mice primed and boosted i.n. with 10^4 pfu RSV-B1, restimulated with 2 µg peptide, representative of two experiments, five mice per group) is reported as 34.5 cytokine-secreting cells per 5×10^5 splenocytes and the “IL-2 ELISPOT, rAd-F0” value ([1]; splenocytes of HLA-Tg B6 mice primed and boosted i.n. with 10^7 pfu rAd-F0, restimulated with 2 µg peptide, representative of two experiments, five mice per group) is reported as 200 cytokine-secreting cells per 5×10^5 splenocytes. For the same sequence, the “IL-2 level in restimulated splenocytes (ELISPOT, text grading)” value ([1]; splenocytes of rAd-F0- or RSV B1-primed and boosted HLA-Tg B6 mice, high = over 100 spots, moderate = over 50 spots) was “over 100 spots” and the “infiltration of CD4+CD25+ T cells in the lungs” value (CD4+CD25+ T cells) was “increased infiltration”.
